{"source": "patent US10168342B2", "about": "“Lipid probes and uses thereof” (THE SCRIPPS RESEARCH INSTITUTE, priority 2015, dated 2019)", "key": {"[1]": {"molecular_target": "T1, AEA-DA lipid probe targets in Neuro2a cells (Mus musculus, UniProt Q3U9G9)", "T1 sequence (Q3U9G9 1-626)": "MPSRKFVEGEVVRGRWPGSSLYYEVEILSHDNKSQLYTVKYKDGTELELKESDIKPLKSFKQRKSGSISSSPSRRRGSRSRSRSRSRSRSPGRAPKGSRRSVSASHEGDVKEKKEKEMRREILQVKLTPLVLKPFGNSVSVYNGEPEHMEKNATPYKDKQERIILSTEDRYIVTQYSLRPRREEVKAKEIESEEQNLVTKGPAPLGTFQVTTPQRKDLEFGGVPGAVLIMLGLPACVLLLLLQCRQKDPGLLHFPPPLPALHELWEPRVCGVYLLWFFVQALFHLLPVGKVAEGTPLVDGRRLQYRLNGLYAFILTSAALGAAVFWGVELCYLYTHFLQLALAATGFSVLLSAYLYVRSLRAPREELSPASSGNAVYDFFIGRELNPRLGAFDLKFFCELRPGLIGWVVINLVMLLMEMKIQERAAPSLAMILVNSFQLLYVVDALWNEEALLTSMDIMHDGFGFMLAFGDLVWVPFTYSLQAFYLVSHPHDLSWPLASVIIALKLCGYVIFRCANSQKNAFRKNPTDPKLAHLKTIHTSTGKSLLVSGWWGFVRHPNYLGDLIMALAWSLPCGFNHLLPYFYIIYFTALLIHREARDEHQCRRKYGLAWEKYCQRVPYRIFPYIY"}, "[2]": {"molecular_target": "T2, AEA-DA lipid probe targets in Neuro2a cells (Mus musculus, UniProt P22315)", "T2 sequence (P22315 54-422)": "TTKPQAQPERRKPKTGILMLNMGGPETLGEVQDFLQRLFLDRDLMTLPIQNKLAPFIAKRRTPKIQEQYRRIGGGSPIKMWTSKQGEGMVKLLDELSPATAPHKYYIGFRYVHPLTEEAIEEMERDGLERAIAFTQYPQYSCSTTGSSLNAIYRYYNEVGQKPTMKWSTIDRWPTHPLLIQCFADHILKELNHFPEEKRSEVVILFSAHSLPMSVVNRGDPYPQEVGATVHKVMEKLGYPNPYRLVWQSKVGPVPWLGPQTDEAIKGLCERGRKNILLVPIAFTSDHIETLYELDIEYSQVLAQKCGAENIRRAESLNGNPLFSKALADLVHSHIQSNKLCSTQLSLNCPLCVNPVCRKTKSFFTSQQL"}, "[3]": {"molecular_target": "AEA-DA lipid probe targets in Neuro2a cells (Mus musculus, UniProt P09055)", "sequence (P09055 21-798)": "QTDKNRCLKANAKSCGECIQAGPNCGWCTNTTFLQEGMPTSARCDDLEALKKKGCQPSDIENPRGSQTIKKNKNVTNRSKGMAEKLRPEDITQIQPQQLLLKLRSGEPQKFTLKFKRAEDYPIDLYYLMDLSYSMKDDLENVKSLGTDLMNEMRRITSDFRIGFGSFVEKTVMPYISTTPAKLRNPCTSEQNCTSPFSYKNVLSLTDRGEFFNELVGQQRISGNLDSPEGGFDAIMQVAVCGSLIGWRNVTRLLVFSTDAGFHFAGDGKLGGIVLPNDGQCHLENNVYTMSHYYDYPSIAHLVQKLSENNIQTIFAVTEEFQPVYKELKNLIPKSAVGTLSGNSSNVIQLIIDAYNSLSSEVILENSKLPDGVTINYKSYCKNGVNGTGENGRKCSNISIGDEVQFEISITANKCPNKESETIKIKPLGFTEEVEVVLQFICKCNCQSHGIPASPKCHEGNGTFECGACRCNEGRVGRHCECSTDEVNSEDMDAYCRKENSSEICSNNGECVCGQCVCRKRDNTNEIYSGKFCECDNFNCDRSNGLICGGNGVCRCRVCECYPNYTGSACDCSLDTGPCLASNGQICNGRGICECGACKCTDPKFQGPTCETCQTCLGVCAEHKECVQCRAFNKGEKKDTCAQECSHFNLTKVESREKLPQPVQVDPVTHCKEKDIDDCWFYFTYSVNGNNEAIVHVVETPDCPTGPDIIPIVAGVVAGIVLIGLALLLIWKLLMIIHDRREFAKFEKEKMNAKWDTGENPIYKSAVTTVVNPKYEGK"}, "[4]": {"molecular_target": "T3, AEA-DA lipid probe targets in Neuro2a cells (Mus musculus, UniProt G5E829)", "T3 sequence (G5E829 1-1220)": "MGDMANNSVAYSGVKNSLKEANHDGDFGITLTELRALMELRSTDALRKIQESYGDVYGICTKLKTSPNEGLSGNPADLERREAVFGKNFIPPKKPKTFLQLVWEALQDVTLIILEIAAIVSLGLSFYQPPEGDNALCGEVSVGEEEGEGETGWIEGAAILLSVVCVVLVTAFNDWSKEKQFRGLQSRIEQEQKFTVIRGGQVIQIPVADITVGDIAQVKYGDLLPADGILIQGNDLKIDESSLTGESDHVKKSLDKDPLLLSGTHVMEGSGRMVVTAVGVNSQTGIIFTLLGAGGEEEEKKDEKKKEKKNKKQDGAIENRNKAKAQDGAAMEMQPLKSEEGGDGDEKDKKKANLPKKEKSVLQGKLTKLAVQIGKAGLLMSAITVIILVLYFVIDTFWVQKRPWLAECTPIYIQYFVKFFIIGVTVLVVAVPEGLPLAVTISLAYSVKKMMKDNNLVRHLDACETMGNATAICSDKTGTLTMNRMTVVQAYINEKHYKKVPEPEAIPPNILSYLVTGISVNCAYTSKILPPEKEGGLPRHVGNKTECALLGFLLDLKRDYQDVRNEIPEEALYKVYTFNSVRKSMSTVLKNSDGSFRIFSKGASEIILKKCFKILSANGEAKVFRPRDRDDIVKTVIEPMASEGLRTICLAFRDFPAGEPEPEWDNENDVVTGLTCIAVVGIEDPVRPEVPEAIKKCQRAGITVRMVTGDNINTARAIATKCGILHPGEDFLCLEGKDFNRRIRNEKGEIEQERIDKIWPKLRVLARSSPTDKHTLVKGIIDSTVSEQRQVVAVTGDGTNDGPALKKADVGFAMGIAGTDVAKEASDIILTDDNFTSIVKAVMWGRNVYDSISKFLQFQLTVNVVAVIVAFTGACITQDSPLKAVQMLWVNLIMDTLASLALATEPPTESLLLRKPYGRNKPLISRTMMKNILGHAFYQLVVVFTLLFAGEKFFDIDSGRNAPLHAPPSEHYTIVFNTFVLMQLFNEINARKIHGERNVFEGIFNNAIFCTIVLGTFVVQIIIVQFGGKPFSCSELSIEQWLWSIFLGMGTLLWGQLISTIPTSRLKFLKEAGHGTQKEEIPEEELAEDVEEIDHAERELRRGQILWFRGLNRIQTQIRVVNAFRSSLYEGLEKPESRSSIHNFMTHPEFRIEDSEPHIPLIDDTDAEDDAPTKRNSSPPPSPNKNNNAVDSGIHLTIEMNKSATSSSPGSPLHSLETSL"}, "[5]": {"molecular_target": "T4, AEA-DA lipid probe targets in Neuro2a cells (Mus musculus, UniProt Q91ZN5)", "T4 sequence (Q91ZN5 1-431)": "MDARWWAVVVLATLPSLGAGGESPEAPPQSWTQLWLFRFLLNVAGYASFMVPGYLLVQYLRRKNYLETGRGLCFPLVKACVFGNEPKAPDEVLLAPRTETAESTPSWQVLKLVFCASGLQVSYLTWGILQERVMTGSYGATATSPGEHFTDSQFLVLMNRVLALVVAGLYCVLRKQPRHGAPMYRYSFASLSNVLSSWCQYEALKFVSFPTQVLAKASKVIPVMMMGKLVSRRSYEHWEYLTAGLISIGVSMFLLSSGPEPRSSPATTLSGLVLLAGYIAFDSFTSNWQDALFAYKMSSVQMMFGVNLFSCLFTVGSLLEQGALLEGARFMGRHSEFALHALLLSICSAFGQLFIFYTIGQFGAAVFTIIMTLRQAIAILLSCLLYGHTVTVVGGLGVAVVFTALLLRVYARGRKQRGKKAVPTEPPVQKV"}}, "note": "Where two headings read alike, the source gives them in different places."}
{"smiles": "CCCCC/C=C\\C/C=C\\C/C=C\\C/C=C\\CCCC(=O)NCCO", "note": "[AEA, anandamide, reference compound]", "values": [{"measurement": "SILAC ratio, Lbr", "setting": "[1]; competitor 200 μM", "result": 2.0}, {"measurement": "SILAC ratio, Fech", "setting": "[2]; competitor 200 μM", "result": 1.3}, {"measurement": "SILAC ratio Itgb1", "setting": "[3]; competitor 200 μM", "result": 1.5}, {"measurement": "SILAC ratio Atp2b1", "setting": "[4]; competitor 200 μM", "result": 1.6}, {"measurement": "SILAC ratio, Slc35b2", "setting": "[5]; competitor 200 μM", "result": 1.9}]}
{"smiles": "O=C(/C=C/c1cccnc1)NCCCCC1CCN(C(=O)c2ccccc2)CC1", "note": "[FK-866, reference compound]", "values": [{"measurement": "SILAC ratio, Lbr", "setting": "[1]; competitor 25 μM", "result": 1.0}, {"measurement": "SILAC ratio, Fech", "setting": "[2]; competitor 25 μM", "result": 20.0}, {"measurement": "SILAC ratio Atp2b1", "setting": "[4]; competitor 25 μM", "result": 1.2}, {"measurement": "SILAC ratio, Slc35b2", "setting": "[5]; competitor 25 μM", "result": 1.0}]}
{"smiles": "CN1CCN(C(=O)c2c(-c3ccccc3)c3cc([N+](=O)[O-])ccc3n2C)CC1", "note": "[KML110, (1-Methyl-5-nitro-3-phenyl-1H-indol-2-yl)(4-methylpiperazin-1-yl)methanone]", "values": [{"measurement": "SILAC ratio, Lbr", "setting": "[1]; competitor 25 μM", "result": 1.2}, {"measurement": "SILAC ratio, Fech", "setting": "[2]; competitor 25 μM", "result": 2.2}, {"measurement": "SILAC ratio Itgb1", "setting": "[3]; competitor 25 μM", "result": 1.0}, {"measurement": "SILAC ratio Atp2b1", "setting": "[4]; competitor 25 μM", "result": 1.8}, {"measurement": "SILAC ratio, Slc35b2", "setting": "[5]; competitor 25 μM", "result": 1.3}]}
{"smiles": "CN1CCN(C(=O)c2[nH]c3ccc([N+](=O)[O-])cc3c2-c2ccccc2)CC1", "note": "[MJN228, (4-Methylpiperazin-1-yl)(5-nitro-3-phenyl-1H-indol-2-yl)methanone]", "values": [{"measurement": "SILAC ratio, Lbr", "setting": "[1]; competitor 10 μM", "result": 1.1}, {"measurement": "SILAC ratio, Lbr", "setting": "[1]; competitor 25 μM", "result": 1.3}, {"measurement": "SILAC ratio, Lbr", "setting": "[1]; competitor 50 μM", "result": 1.5}, {"measurement": "SILAC ratio, Lbr", "setting": "[1]; competitor 100 μM", "result": 1.8}, {"measurement": "SILAC ratio, Fech", "setting": "[2]; competitor 10 μM", "result": 1.0}, {"measurement": "SILAC ratio, Fech", "setting": "[2]; competitor 25 μM", "result": 2.4}, {"measurement": "SILAC ratio, Fech", "setting": "[2]; competitor 50 μM", "result": 3.0}, {"measurement": "SILAC ratio, Fech", "setting": "[2]; competitor 100 μM", "result": 2.9}, {"measurement": "SILAC ratio Itgb1", "setting": "[3]; competitor 10 μM", "result": 1.2}, {"measurement": "SILAC ratio Itgb1", "setting": "[3]; competitor 25 μM", "result": 1.3}, {"measurement": "SILAC ratio Itgb1", "setting": "[3]; competitor 50 μM", "result": 1.1}, {"measurement": "SILAC ratio Itgb1", "setting": "[3]; competitor 100 μM", "result": 1.1}, {"measurement": "SILAC ratio Atp2b1", "setting": "[4]; competitor 10 μM", "result": 1.1}, {"measurement": "SILAC ratio Atp2b1", "setting": "[4]; competitor 25 μM", "result": 1.4}, {"measurement": "SILAC ratio Atp2b1", "setting": "[4]; competitor 50 μM", "result": 1.4}, {"measurement": "SILAC ratio Atp2b1", "setting": "[4]; competitor 100 μM", "result": 1.7}, {"measurement": "SILAC ratio, Slc35b2", "setting": "[5]; competitor 10 μM", "result": 1.0}, {"measurement": "SILAC ratio, Slc35b2", "setting": "[5]; competitor 25 μM", "result": 1.1}, {"measurement": "SILAC ratio, Slc35b2", "setting": "[5]; competitor 50 μM", "result": 1.6}, {"measurement": "SILAC ratio, Slc35b2", "setting": "[5]; competitor 100 μM", "result": 1.2}]}
{"smiles": "C=CCN(C)CCCCCCOc1ccc(C(=O)c2ccc(Br)cc2)c(F)c1", "note": "[Ro 48-8071, reference compound]", "values": [{"measurement": "SILAC ratio, Lbr", "setting": "[1]; competitor 25 μM", "result": 1.9}, {"measurement": "SILAC ratio, Fech", "setting": "[2]; competitor 25 μM", "result": 1.4}, {"measurement": "SILAC ratio Atp2b1", "setting": "[4]; competitor 25 μM", "result": 1.1}, {"measurement": "SILAC ratio, Slc35b2", "setting": "[5]; competitor 25 μM", "result": 0.9}]}
